According to patent US6552006B2, “Immunomodulatory polynucleotides in treatment of an infection by an intracellular pathogen” (The Regents of the University of California, priority 2000, dated 2003):

Tests used:
M. avium [1] = experiment: Intracellular growth of M. avium in human monocyte-derived macrophages (hMDM) in vitro, CFU assay; type: cell-based, Mycobacterium avium; details: for enhancement of the anti-mycobacterial effect of clarithromycin: compared to antibiotic alone
Description: A previously studied M. avium strain 13 (Hayashi, et al. (1999) Infect. Immun. 67:3558-3565; Meylan, et al. (1990) Infect. Immun. 58:2564-2568), isolated from an AIDS patient at UCSD, San Diego, Calif., was used in all experiments. The organism was cultured on Middlebrook 7H11 agar (Difco Laboratories, Detroit, Mich.) with OADC enrichment at 37° C. in the presence of 5% CO2 for two weeks. Transparent colonies were selectively picked and further cultured on Middlebrook 7H11 plates for two more weeks. The resulting colonies, which were predominantly transparent (>90%), were then collected and washed two times with phosphate-buffered saline (PBS). The bacteria were finally resuspended in Middlebrook 7H9 broth (Difco Laboratories) and the OD600 of the suspension was adjusted to 0.15-0.2. The suspension was aliquoted and stored at −70° C. until use. The number of organisms/ml of this suspension was determined by the colony forming unit (CFU) assay.
The number of CFU in a given sample was determined by colony counting as described previously (Ogata, et al. (1992) Infect. Immun. 60:4720-4725). Serial 10-fold dilutions of total cell lysates or tissue homogenates were performed in PBS. 10 μl of each dilution were plated on Middlebrook 7H11 plates supplemented with OADC enrichment. The plates were incubated up to 14 days at 37° C. The number of colonies was counted every alternate day from day 10 onwards until no new colonies appeared. This yielded the number of CFU/10 μl. The number of CFU in each well was then calculated.
Monocytes were isolated from normal human buffy coats obtained from the San Diego Blood Bank by Ficoll-Hypaque and Percoll gradient centrifugation (Hayashi, et al. (1997) Infect. Immun. 65:5262-5271). Purity of the monocytes by this method was greater than 70%. The monocytes thus isolated were cultured for five to seven days in Iscove's Modified Dulbecco's Medium (BioWhittaker, Walkersville, Md.) supplemented with 10% normal human serum (Irvine Scientific, Santa Ana, Calif.), 2 mM L-glutamine and 50 units/ml penicillin-streptomycin in Teflon beakers to yield human monocyte-derived macrophages (hMDM). These hMDM were further enriched by adherence to the wells of tissue culture plates before use in experiments. Purity of hMDM after the second adherence assessed by esterase staining was >95%. Viability determined by trypan blue exclusion was >97%.
hMDM (6×10^4) were, adhered to the wells of 96-well tissue culture plates for two hours and non-adherent cells were removed by washing with warm RPMI-1640. Adherent cells were treated with ISS at 3, 10, or 30 μg/ml for 72 h before infection with M. avium. Cells treated with M-ODN at 10 μg/ml or with media alone served as controls. After 72 h, the cells were washed two times and infected with M. avium in RPMI-1640 supplemented with 5% heat-inactivated fetal bovine serum (FBS, Irvine Scientific) at a cell:bacteria ratio of 1:5-1:10. On days 1, 3 and 7 after infection, the total number of colony forming units (CFU) in each well was determined. The supernatant was collected and set aside and the adherent cells were lysed. To account for all the mycobacteria in each well, corresponding lysates and supernatants were combined and used to determine the number of CFU. Experiments were done in triplicate and results were expressed as mean±SD of CFU per well.
Alternatively, 5×10^4 mBMDM or hMDM was treated with ISS for 3 days before infection. Macrophages treated with M-ODN or with media alone served as controls. After 3 days, the cells were infected for 2 hrs with M. avium at a macrophage:bacteria ratio of 2:1 for mBMDM or of 1:10 for hMDM, and subsequently cultured in fresh media without antibiotics. To examine attachment and/or invasion of M. avium, the macrophages were lysed immediately after washing, and the number of bacteria were enumerated by the CFU assay. Intracellular growth of M. avium was determined on days 1, 3, and 7 after infection. […]

[2] = system: IFN-γ producing CD4+ and CD8+ T cells; experiment: Intracellular IFN-γ staining and secreted IFN-γ ELISA of re-stimulated splenocytes from M. avium-infected mice; type: in vivo; details: ISS 50 μg/mouse; 10^7 organisms/mouse; three weeks post-infection; anti-CD3/anti-CD28 re-stimulation
Description: Mice were injected intradermally (i.d.) with ISS (50 μg/mouse). The control mice received M-ODN (50 μg/mouse) or PBS (50 μl/mouse). All mice were infected with 1×10^7 M. avium. Three weeks after infection, the mice were sacrificed and splenocytes from mice receiving the same treatment were pooled. Intracellular cytokine staining was performed using the Cytofix/Cytoperm kit (Pharmingen) according to the manufacturer's instructions. Briefly, the splenocytes were stimulated with anti-CD3 and anti-CD28 activating antibodies in the presence of monensin to allow intracellular IFN-γ to accumulate for 6 hrs. Next, surface CD4 and CD8 were stained for, the cells were fixed, and the plasma membranes were permeabilized, allowing for intracellular staining with anti-IFN-γ. The cells were analyzed on a FACSCalibur flow cytometer (Becton Dickenson). To study IFN-γ production, splenocytes were incubated with anti-CD3 and anti-CD28 antibodies in vitro for 24 hrs, and these supernatants were assayed for the presence of IFN-γ by sandwich ELISA (Martin-Orozco, et al. (1999) Int. Immun. 11:1111-1118).

[3] = system: indoleamine 2,3-dioxygenase (IDO); experiment: IDO gene induction in vivo in mice, semi-quantitative RT-PCR; details: 50 μg i.v.; after 16 hrs
IFN-γ = experiment: Serum IFN-γ by ELISA in mice; type: in vivo
Description: Serum obtained from M. avium-infected mice that received ISS or PBS was assayed for IFN-γ and IL-12 by ELISA using mouse IFN-γ and IL-12 (p70) ELISA kits (Endogen, Inc. Woburn, […]), respectively, and following the manufacturer's instructions.

M. avium [4] = experiment: Growth of M. avium in vivo in C57B1/6 mice, CFU per organ; set-up: species or system Mycobacterium avium; details: for viable bacteria in the lungs: week 2
[5] = other experiments, data not shown
[6] = ISS 3 days before i.v. infection, 10^7 organisms/mouse, four weeks after infection, vs M-ODN and PBS mice

“5′-TGACTGTGAACGTTCGAGATGA-3′ (SEQ ID NO:1) [ISS]” was tested, and the “decrease of intracellular growth of M. avium” value (M. avium [1]; established infection, infected hMDM treated with ISS 10 μg/ml for 7 days) was 53%, the “inhibition of intracellular growth of M. avium” value (M. avium [1]; hMDM (5×10^4/well) treated 3 days before infection, 7 days post-infection (FIG. 4A)) was 91% and the “inhibition of intracellular growth of M. avium” value (M. avium [1]; hMDM pretreated 72 h with 3 μg/ml ISS before infection, day 7, vs medium alone or M-ODN) was 91.3±1.7%. For the same substance, the “growth inhibition at the higher concentrations of ISS tested” value (M. avium [1]; hMDM pretreated with 10 or 30 μg/ml vs 3 μg/ml ISS) was “no further increase in growth inhibition”, the “inhibition of growth of M. avium” value (M. avium [1]; hMDM, ISS (10 µg/mL) immediately after infection (0 day), CFU at day 7, vs medium alone) was 53±18% and the “inhibition of growth of M. avium” value (M. avium [1]; hMDM, ISS (10 µg/mL) one day after infection (+1 day), CFU at day 7, vs medium alone) was 36±16%. For the same substance, the “inhibition of intracellular growth of M. avium” value (M. avium [1]; hMDM, ISS (10 µg/mL) pretreatment three days before infection (−3 days), CFU at day 7, vs medium alone) was 51±4%, the “inhibition of intracellular growth of M. avium” value (M. avium [1]; infected hMDM, ISS 10 μg/ml alone, day 7) was 38±7% and the “enhancement of the anti-mycobacterial effect of clarithromycin” value (M. avium [1]; infected hMDM, ISS 10 μg/ml with 1 μg/ml clarithromycin, day 7) was 89±5%. The “enhancement of the anti-mycobacterial effect of clarithromycin” value (M. avium [1]; infected hMDM, ISS 10 μg/ml with 4 μg/ml clarithromycin, day 7) was 63±12%, the “frequency of infection-specific IFN-γ positive CD4+ or CD8+ T cells” value [2] was “did not further increase” and the “IDO gene induction in vivo in the liver” value [3] was “not in the liver”. For the same substance, the “IDO gene induction in vivo in the lungs and spleen” value [3] was “observed”, the “serum IFN-γ levels” value (IFN-γ; M. avium-infected mice (10^6 organisms/mouse), 2, 4, 6 weeks, ISS-pretreated vs PBS-pretreated) was “no significant differences” and the “time for serum IFN-γ to attain basal levels post injection” value (IFN-γ; [5]) was ≤ 3 weeks. The “time of peak serum level of IFN-γ after administration” value (IFN-γ; [5]) was 1 days, the “growth of M. avium in the therapeutic model” value (M. avium [4]; C57B1/6 mice, 10^7 CFU i.v., ISS-ODN 50 μg/mouse alone one week after infection, 5 weeks after infection) was “did not inhibit the growth of M. avium” and the “viable bacteria in the lungs” value (M. avium [4]; ISS 100 μg/mouse i.d. 3 days before infection, 10^6 organisms/mouse, vs PBS) was “significantly lower number of viable bacteria”. The “difference of CFU in the lungs, controls vs ISS-treated mice” value (M. avium [4]; [6]) was 1 log, the “difference of CFU in the spleen, controls vs ISS-treated mice” value (M. avium [4]; [6]) was 2 logs and the “number of bacteria in the spleen” value (M. avium [4]; ISS i.d. 3 days before infection, 10^6 organisms/mouse, vs PBS, effects maximal at 4 weeks) was “almost two logs lower number of bacteria”. For the same substance, the “CFU in the spleen” value (M. avium [4]; ISS pretreatment, 10^6 organisms/mouse, week 6, vs PBS) was “equaled that observed in the control mice”, the “bacterial load in the lungs” value (M. avium [4]; ISS pretreatment, 10^6 organisms/mouse, week 6, vs control mice) was “exceeded that found in the lungs of control mice” and the “bacterial loads in the liver” value (M. avium [4]; ISS pretreatment, 10^6 organisms/mouse, weeks 2, 4, 6, vs PBS) was “no significant difference”. The “bacteria in the spleen” value (M. avium [4]; ISS prior to infection, 10^7 organisms/mouse, 4 weeks, vs PBS) was “nearly two logs less bacteria”, the “splenic CFU counts” value (M. avium [4]; ISS prior to infection, 10^7 organisms/mouse, 6 weeks, vs control) was “similar” and the “viable bacteria in the lungs” value (M. avium [4]; ISS prior to infection, 10^7 organisms/mouse, vs PBS) was “significantly lower number of viable bacteria”. The “mycobacterial loads in the liver” value (M. avium [4]; ISS prior to infection, 10^7 organisms/mouse, weeks 2, 4, 6, vs PBS) was “no significant difference” and the “persistence of the protective effect after administration” value (M. avium [4]; single injection of ISS, 10^6 organisms/mouse) was “up to four weeks”.
